According to publication PMC6556873, “Rapid Covalent-Probe Discovery by Electrophile-Fragment Screening” (Journal of the American Chemical Society, 2019):
Read-outs that look alike come from different tables or passages of the source.

Columns and labels:
in vitro [1] = experiment: in vitro; design: species or system HB2, HEK293; conditions: human, ccd841 cells
in vitro [2] = experiment: in vitro; design: species or system HB2, CCD841; conditions: human, hek293 cells
BSA = biological target: T1, BSA (Bos taurus, UniProt P02769); design: Intact protein LC/MS covalent labelling, fragments in pools of five, 200 uM each, 4 °C; conditions: 24 h, 4 °C, pool of five; 200 µM; covalent
T1 construct: gene ALB
T1 sequence (P02769 whole entry, the tested form may be a part): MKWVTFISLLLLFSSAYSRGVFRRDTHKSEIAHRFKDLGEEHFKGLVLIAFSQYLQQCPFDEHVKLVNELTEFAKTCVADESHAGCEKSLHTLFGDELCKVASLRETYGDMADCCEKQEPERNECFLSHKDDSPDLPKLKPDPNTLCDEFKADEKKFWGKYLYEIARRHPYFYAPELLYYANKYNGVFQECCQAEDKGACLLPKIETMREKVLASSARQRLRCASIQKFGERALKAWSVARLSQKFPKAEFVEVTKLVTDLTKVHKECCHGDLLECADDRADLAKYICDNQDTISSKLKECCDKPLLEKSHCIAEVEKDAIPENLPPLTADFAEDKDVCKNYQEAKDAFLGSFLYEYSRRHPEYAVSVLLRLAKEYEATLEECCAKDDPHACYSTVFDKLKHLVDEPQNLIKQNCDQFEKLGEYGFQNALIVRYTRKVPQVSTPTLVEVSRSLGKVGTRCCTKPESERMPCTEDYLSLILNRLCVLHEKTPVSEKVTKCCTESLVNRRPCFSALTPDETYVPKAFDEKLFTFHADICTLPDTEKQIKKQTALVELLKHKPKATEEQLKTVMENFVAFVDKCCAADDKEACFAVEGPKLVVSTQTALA

NUDT7 = biological target: T2, NUDT7 (Homo sapiens, UniProt P0C024); design: Intact protein LC/MS covalent labelling, fragments in pools of five, 200 uM each, 4 °C; conditions: 24 h, 4 °C, pool of five; 200 µM; covalent
T2 construct: residues 14-235, E. coli, pNIC28-Bsa4, N-terminal His6 tag removed by TEV, construct 26672 Da
T2 sequence (P0C024 14-235): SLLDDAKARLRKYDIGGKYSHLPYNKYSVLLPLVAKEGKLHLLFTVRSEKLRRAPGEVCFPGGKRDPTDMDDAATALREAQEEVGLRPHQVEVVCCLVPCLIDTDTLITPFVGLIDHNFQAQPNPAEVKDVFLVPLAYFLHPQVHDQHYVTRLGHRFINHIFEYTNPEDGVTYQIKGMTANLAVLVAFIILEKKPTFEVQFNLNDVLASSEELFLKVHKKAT

PCAF = biological target: T3, PCAF (Homo sapiens, UniProt Q92831); design: Intact protein LC/MS covalent labelling, fragments in pools of five, 200 uM each, 4 °C; conditions: 24 h, 4 °C, pool of five; 200 µM; covalent
T3 construct: gene KAT2B
T3 sequence (Q92831 whole entry, the tested form may be a part): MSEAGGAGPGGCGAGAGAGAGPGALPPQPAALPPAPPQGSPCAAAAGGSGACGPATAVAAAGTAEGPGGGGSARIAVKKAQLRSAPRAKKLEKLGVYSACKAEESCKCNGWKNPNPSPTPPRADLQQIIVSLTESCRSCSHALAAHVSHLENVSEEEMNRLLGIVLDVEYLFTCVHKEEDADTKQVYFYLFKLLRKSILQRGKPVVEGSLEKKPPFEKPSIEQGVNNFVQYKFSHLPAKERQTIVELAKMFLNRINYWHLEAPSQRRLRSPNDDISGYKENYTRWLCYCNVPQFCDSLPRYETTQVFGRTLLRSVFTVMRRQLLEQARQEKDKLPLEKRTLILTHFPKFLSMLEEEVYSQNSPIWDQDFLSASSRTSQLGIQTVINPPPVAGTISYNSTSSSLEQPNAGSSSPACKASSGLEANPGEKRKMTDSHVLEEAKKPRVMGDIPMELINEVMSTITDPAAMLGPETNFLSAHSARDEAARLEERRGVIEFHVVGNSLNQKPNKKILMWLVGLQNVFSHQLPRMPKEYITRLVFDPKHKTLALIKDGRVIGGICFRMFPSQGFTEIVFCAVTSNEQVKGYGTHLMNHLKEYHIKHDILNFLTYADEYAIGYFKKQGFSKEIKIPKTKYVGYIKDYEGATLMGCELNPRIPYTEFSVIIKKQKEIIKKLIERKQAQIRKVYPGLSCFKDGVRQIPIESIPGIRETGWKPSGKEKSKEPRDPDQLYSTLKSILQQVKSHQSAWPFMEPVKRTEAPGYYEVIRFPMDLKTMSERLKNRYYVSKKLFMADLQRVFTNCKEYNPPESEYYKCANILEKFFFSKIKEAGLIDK

OTUB2 (OTUB2A) = biological target: T4, OTUB2 (OTUB2A) (Homo sapiens, UniProt Q96DC9); design: Intact protein LC/MS covalent labelling, fragments in pools of five, 200 uM each, 4 °C; conditions: 24 h, 4 °C, pool of five; 200 µM; covalent
T4 construct: full length residues 1-234, E. coli BL21(DE3)-R3, His tag removed by TEV, construct 27312 Da
T4 sequence (Q96DC9 1-234): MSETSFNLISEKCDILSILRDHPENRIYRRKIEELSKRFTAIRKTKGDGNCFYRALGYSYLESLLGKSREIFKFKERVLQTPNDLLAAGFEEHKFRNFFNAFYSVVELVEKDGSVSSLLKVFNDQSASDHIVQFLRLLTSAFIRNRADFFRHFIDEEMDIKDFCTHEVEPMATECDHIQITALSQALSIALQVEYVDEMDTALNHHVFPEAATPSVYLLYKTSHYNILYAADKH

in vitro [3] = experiment: in vitro; design: species or system CCD841, HEK293; conditions: human, hb2 cells, read-out: HB-2 Cells Viability (%)

O=C(NC1CCN(C(=O)CCl)CC1)c1ccccc1 [PCM-0102575]
viability at 48 h, 10 µM (in vitro [1]): 68.2%
viability at 48 h, 10 µM (in vitro [2]): 40.6%
BSA (BSA): 0
NUDT7 (NUDT7): 0.09
PCAF (PCAF): 0
OTUB2 (OTUB2 (OTUB2A)): 0.09
viability at 48 h, 10 µM (in vitro [3]): 63.8%

O=C(CCl)Nc1c(Cl)cc(Cl)cc1C(=O)O [PCM-0102576]
viability at 48 h, 10 µM (in vitro [1]): 105%
viability at 48 h, 10 µM (in vitro [2]): 100%
BSA (BSA): 0
NUDT7 (NUDT7): 0
PCAF (PCAF): 0
OTUB2 (OTUB2 (OTUB2A)): 0
viability at 48 h, 10 µM (in vitro [3]): 100%

Cc1ccc(NC(=O)CCl)cc1I [PCM-0102577]
viability at 48 h, 10 µM (in vitro [1]): 17.9%
viability at 48 h, 10 µM (in vitro [2]): 2.4%
BSA (BSA): 0
NUDT7 (NUDT7): 0.34
PCAF (PCAF): 0
OTUB2 (OTUB2 (OTUB2A)): 0.8
viability at 48 h, 10 µM (in vitro [3]): 4.6%

O=C(CCl)NCc1ccc2c(c1)OCO2 [PCM-0102578]
viability at 48 h, 10 µM (in vitro [1]): 99.9%
viability at 48 h, 10 µM (in vitro [2]): 85.6%
BSA (BSA): 0
NUDT7 (NUDT7): 0
PCAF (PCAF): 0
OTUB2 (OTUB2 (OTUB2A)): 0.16
viability at 48 h, 10 µM (in vitro [3]): 97.5%

Cc1cccc(N(C(=O)CCl)C2C=CS(=O)(=O)C2)c1 (stereo not drawn) [PCM-0102579]
viability at 48 h, 10 µM (in vitro [1]): 16.2%
viability at 48 h, 10 µM (in vitro [2]): 6.4%
BSA (BSA): 0
NUDT7 (NUDT7): 0.4
PCAF (PCAF): 0
OTUB2 (OTUB2 (OTUB2A)): 0
viability at 48 h, 10 µM (in vitro [3]): 29.8%

N#Cc1c(NC(=O)CCl)sc2c1CCCC2 [PCM-0102580]
viability at 48 h, 10 µM (in vitro [1]): 78%
viability at 48 h, 10 µM (in vitro [2]): 67.4%
BSA (BSA): 0
NUDT7 (NUDT7): 0.72
PCAF (PCAF): 0
OTUB2 (OTUB2 (OTUB2A)): 0.1
viability at 48 h, 10 µM (in vitro [3]): 77.2%

C=CC(=O)Nc1ccccc1C(F)(F)F [PCM-0102581]
viability at 48 h, 10 µM (in vitro [1]): 121%
viability at 48 h, 10 µM (in vitro [2]): 123%
BSA (BSA): 0
NUDT7 (NUDT7): 0
PCAF (PCAF): 0
OTUB2 (OTUB2 (OTUB2A)): 0
viability at 48 h, 10 µM (in vitro [3]): 108%

O=C(CCl)Nc1ccc(N2CCOCC2)cc1 [PCM-0102582]
viability at 48 h, 10 µM (in vitro [1]): 79.5%
viability at 48 h, 10 µM (in vitro [2]): 57.2%
BSA (BSA): 0
NUDT7 (NUDT7): 0
PCAF (PCAF): 0
OTUB2 (OTUB2 (OTUB2A)): 0.54
viability at 48 h, 10 µM (in vitro [3]): 74.9%

C=CC(=O)NC1CCCc2cnn(C(C)C)c21 (stereo not drawn) [PCM-0102583]
viability at 48 h, 10 µM (in vitro [1]): 120%
viability at 48 h, 10 µM (in vitro [2]): 96.8%
BSA (BSA): 0
NUDT7 (NUDT7): 0
PCAF (PCAF): 0
OTUB2 (OTUB2 (OTUB2A)): 0
viability at 48 h, 10 µM (in vitro [3]): 105%

NC(=O)C1CCN(C(=O)CCl)CC1 [PCM-0102584]
viability at 48 h, 10 µM (in vitro [1]): 97.9%
viability at 48 h, 10 µM (in vitro [2]): 89.8%
BSA (BSA): 0
NUDT7 (NUDT7): 0
PCAF (PCAF): 0
OTUB2 (OTUB2 (OTUB2A)): 0
viability at 48 h, 10 µM (in vitro [3]): 105%

O=C(CCl)Nc1cc2c(cc1Cl)OCCO2 [PCM-0102585]
viability at 48 h, 10 µM (in vitro [1]): 68%
viability at 48 h, 10 µM (in vitro [2]): 15%
BSA (BSA): 0
NUDT7 (NUDT7): 0.12
PCAF (PCAF): 0
OTUB2 (OTUB2 (OTUB2A)): 0
viability at 48 h, 10 µM (in vitro [3]): 38.7%

Cc1cc(SC#N)cc(C)c1NC(=O)CCl [PCM-0102586]
viability at 48 h, 10 µM (in vitro [1]): 14.2%
viability at 48 h, 10 µM (in vitro [2]): 51.6%
BSA (BSA): 0
NUDT7 (NUDT7): 0
PCAF (PCAF): 0
OTUB2 (OTUB2 (OTUB2A)): 0
viability at 48 h, 10 µM (in vitro [3]): 27.3%

Cc1n[nH]c(C)c1NC(=O)CCl [PCM-0102588]
viability at 48 h, 10 µM (in vitro [1]): 98.7%
viability at 48 h, 10 µM (in vitro [2]): 98.6%
BSA (BSA): 0
NUDT7 (NUDT7): 0
PCAF (PCAF): 0
OTUB2 (OTUB2 (OTUB2A)): 0
viability at 48 h, 10 µM (in vitro [3]): 102%

COC(=O)c1ccccc1N(C)C(=O)CCl [PCM-0102589]
viability at 48 h, 10 µM (in vitro [1]): 89.7%
viability at 48 h, 10 µM (in vitro [2]): 58.9%
BSA (BSA): 0
NUDT7 (NUDT7): 0.15
PCAF (PCAF): 0
OTUB2 (OTUB2 (OTUB2A)): 0
viability at 48 h, 10 µM (in vitro [3]): 92.1%

O=C(CCl)Nc1cc(C(=O)O)ccc1Cl [PCM-0102590]
viability at 48 h, 10 µM (in vitro [1]): 102%
viability at 48 h, 10 µM (in vitro [2]): 110%
BSA (BSA): 0
NUDT7 (NUDT7): 0
PCAF (PCAF): 0
OTUB2 (OTUB2 (OTUB2A)): 0
viability at 48 h, 10 µM (in vitro [3]): 103%
